Experimental data taken from ChEMBL document CHEMBL5233248, “Resveratrol - A comprehensive review of recent advances in anticancer drug design and development” (Eur J Med Chem, 2020).
Values joined by “and” are separate entries in the source; they are usually repeats but may differ in a detail not shown here. Equal values may be shown once. Residues, ends and D or L forms follow the SMILES beside them. *: point of attachment. X1 = Oc1cc(O)cc(/C=C/c2ccc(O*)cc2)c1

Key:
MCF7 [1] = experiment: Anticancer activity against human MCF7 assessed as cell growth inhibition incubated for 72 hrs by MTT assay; type: functional, cell-based; settings: MCF7, 72 h
NCI-H460 = experiment: Anticancer activity against human NCI-H460 assessed as cell growth inhibition incubated for 72 hrs by MTT assay; type: functional, cell-based; settings: NCI-H460, 72 h
HCT-116 [2] = experiment: Anticancer activity against human HCT-116 assessed as cell growth inhibition incubated for 72 hrs by MTT assay; type: functional, cell-based; settings: HCT-116, 72 h
A549 [3] = experiment: Anticancer activity against human A549 cells assessed as cell growth inhibition incubated for 48 hrs by Tryphan blue assay; type: functional, cell-based; settings: A549, 48 h
[4] = Potency index, ratio of test compound IC50 to Melphalan IC50 for antiproliferative activity against […] L1210 cells; type: functional
[5] = Anticancer activity against human Molt 4/C8 cells assessed as cell growth inhibition incubated for 48 hrs by MTT assay; type: functional, cell-based; settings: Molt4/C8, 48 h
CCRF-CEM [6] = experiment: Anticancer activity against human CEM cells assessed as cell growth inhibition incubated for 48 hrs by MTT assay; type: functional, cell-based
CCRF-CEM [7] = experiment: Anticancer activity against human CEM cells assessed as cell growth inhibition incubated for 48 hrs by Tryphan blue assay; type: functional, cell-based
L1210 = experiment: Anticancer activity against mouse L1210 cells assessed as cell growth inhibition incubated for 48 hrs by MTT assay; type: functional, cell-based; settings: L1210, 48 h
MCF7 [8] = experiment: Anticancer activity against human MCF7 cells assessed as cell growth inhibition incubated for 3 days by MTT assay; type: functional, cell-based; settings: MCF7, 72 h
[9] = Cytotoxicity against human MCF-10A cells assessed as cell growth inhibition incubated for 24 hrs by MTT assay; type: toxicity, cell-based
[10] = Cytotoxicity against mouse NIH3T3 cells assessed as cell growth inhibition by CyQuant assay; type: toxicity, cell-based
[11] = Anticancer activity against human HOSE cells assessed as cell growth inhibition incubated for 24 hrs […] by MTT assay; type: functional, cell-based
HL-60 = experiment: Anticancer activity against human HL-60 cells assessed as cell growth inhibition incubated for 48 hrs by MTT assay; type: functional, cell-based; settings: HL-60, 48 h
MCF7 [12] = experiment: cells; settings: Homo sapiens, MCF7, 48 h
Description: Anticancer activity against human MCF7 cells assessed as cell growth inhibition incubated for 48 hrs in presence of Curcumin by MTS assay

A549 [13] = experiment: Anticancer activity against human A549 cells assessed as cell growth inhibition measured after 72 hrs by MTT assay; type: functional, cell-based; settings: a549
HepG2 [14] = experiment: Anticancer activity against human HepG2 cells assessed as cell growth inhibition incubated for 3 days by MTT assay; type: functional, cell-based; settings: HepG2, 72 h
MCF-12A = experiment: Anticancer activity against human MCF-12A cells assessed as reduction of cell viability incubated for 48 hrs by MTT assay; type: functional, cell-based
SK-OV-3 [15] = experiment: Anticancer activity against human SK-OV-3 assessed as cell growth inhibition incubated for 72 hrs by MTT assay; type: functional, cell-based; settings: SK-OV-3, 72 h
[16] = Anticancer activity against human Peritoneal mesothelial cells assessed as cell growth inhibition by LDH release assay; type: functional, cell-based
HeLa [17] = experiment: Anticancer activity against human HeLa cells assessed as cell growth inhibition; type: functional, cell-based
Capan-2 = experiment: Anticancer activity against human Capan-2 cells assessed as cell growth inhibition incubated for 72 hrs by MTT assay; type: functional, cell-based; settings: Capan-2, 72 h
HeLa [18] = experiment: Anticancer activity against human HeLa cells assessed as cell growth inhibition incubated for 48 hrs by MTT assay; type: functional, cell-based
A-431 = experiment: Anticancer activity against human A-431 cells assessed as reduction of cell viability incubated for 48 hrs by MTT assay; type: functional, cell-based; settings: A-431, 48 h
[19] = Anticancer activity against human HOSE cells assessed as cell growth inhibition by LDH release assay; type: functional, cell-based
[20] = Growth inhibition of human leukaemia cell line; type: functional
[21] = Cytotoxicity activity against human CCD-1059Sk cells assessed as cell growth inhibition incubated for 48 hrs by MTS assay; type: toxicity, cell-based
HT-29 [22] = experiment: Anticancer activity against human HT-29 cells assessed as cell growth inhibition incubated for 3 days by MTT assay; type: functional, cell-based; settings: HT-29, 72 h
Ishikawa = experiment: cells; settings: Homo sapiens
Description: Anti-tumor activity against human ishikawa cells assessed as anti-estrogenic potential

MCF7 [23] = experiment: Anticancer activity against human MCF7 cells assessed as cell growth inhibition incubated for 48 hrs by MTS assay; type: functional, cell-based; settings: MCF7, 48 h
HT-29 [24] = experiment: cells; settings: Homo sapiens, HT-29, 48 h
Description: Anti cancer activity against human HT-29 cell assessed as cell growth inhibition incubated for 48 hrs by Brdu assay

HCT-116 [25] = experiment: Anticancer activity against human HCT-116 cells assessed as cell growth inhibition; type: functional, cell-based
A2780 [26] = experiment: Anticancer activity against human A2780 cells assessed as cell growth inhibition incubated for 24 hrs […] by MTT assay; type: functional, cell-based; settings: A2780, 24 h
HaCaT = experiment: Anticancer activity against human HaCaT cells assessed as reduction of cell viability incubated for 48 hrs by MTT assay; type: functional, cell-based
A2780 [27] = experiment: Anticancer activity against human A2780 cells assessed as cell growth inhibition by LDH release assay; type: functional, cell-based
U-251 = experiment: Anticancer activity against human U-251MG cells assessed as cell growth inhibition by CyQuant assay; type: functional, cell-based
HT-29 [28] = experiment: Anticancer activity against human HT-29 cells assessed as cell growth inhibition incubated for 24 hrs by MTT assay; type: functional, cell-based; settings: Homo sapiens, HT-29, 24 h
OVCAR-3 = experiment: Anticancer activity against human OVCAR-3 cells assessed as cell growth inhibition incubated for 24 hrs […] by MTT assay; type: functional, cell-based; settings: OVCAR-3, 24 h
[29] = Anticancer activity against human Peritoneal mesothelial cells assessed as cell growth inhibition incubated for 24 hrs […] by MTT assay; type: functional, cell-based
MCF7 [30] = experiment: Anticancer activity against human MCF7 cells assessed as cell growth inhibition incubated for 24 hrs by MTT assay; type: functional, cell-based; settings: MCF7, 24 h
SK-OV-3 [31] = experiment: Anticancer activity against human SK-OV-3 cells assessed as cell growth inhibition incubated for 24 hrs […] by MTT assay; type: functional, cell-based; settings: SK-OV-3, 24 h
BXPC-3 = experiment: Anticancer activity against human BXPC-3 cells assessed as cell growth inhibition incubated for 72 hrs by MTT assay; type: functional, cell-based; settings: BXPC-3, 72 h
HepG2 [32] = experiment: cells; settings: Homo sapiens, HepG2, 48 h
Description: Anti cancer activity against human HepG2 cell assessed as cell growth inhibition incubated for 48 hrs by Brdu assay

[33] = Anticancer activity against Lung adenocarcinoma cell line assessed as cell growth inhibition measured after 72 hrs by MTT assay; type: functional, cell-based; settings: lung adenocarcinoma cell line
ASPC1 = experiment: Anticancer activity against human ASPC1 cells assessed as cell growth inhibition incubated for 72 hrs by MTT assay; type: functional, cell-based; settings: ASPC1, 72 h
MDA-MB-231 [34] = experiment: Anticancer activity against human MDA-MB-231 cells assessed as reduction in cell viability measured after 48 hrs at 150 uM by MTT assay relative to control; type: functional
PANC-1 = experiment: Anticancer activity against human PANC-1 cells assessed as cell growth inhibition by CyQuant assay; type: functional, cell-based
[35] = Cytotoxicity activity against human CCD-1059Sk cells assessed as cell growth inhibition incubated for 48 hrs in presence of Curcumin by MTS assay; type: toxicity, cell-based
CYP1A = CYP1A (Homo sapiens, UniProt P04798+P05177); experiment: Inhibtion of CYP1A (unknown origin); type: ADME, protein assay
MCF7 [36] = experiment: Anticancer activity against human MCF7 cells assessed as reduction of cell viability incubated for 48 hrs by MTT assay; type: functional, cell-based; settings: MCF7, 48 h
Renal cancer cell line = experiment: Growth inhibition of human Renal cancer cell line; type: functional
HEK293 = experiment: Anticancer activity against human HEK293 cells assessed as cell growth inhibition incubated for 3 days by MTT assay; type: functional, cell-based; settings: HEK293, 72 h
MCF7 [37] = experiment: Anticancer activity against human MCF7 cells assessed as cell growth inhibition by CyQuant assay; type: functional, cell-based
SK-BR-3 = experiment: Anticancer activity against human SK-BR-3 cells assessed as cell growth inhibition incubated for 24 hrs by MTT assay; type: functional, cell-based; settings: SK-BR-3, 24 h
Caco-2 = experiment: cells; settings: Homo sapiens, Caco-2, 48 h
Description: Anti cancer activity against human Caco-2 cell assessed as cell growth inhibition incubated for 48 hrs by Brdu assay

HCT-116 [38] = experiment: Anticancer activity against human HCT-116 cells assessed as cell growth inhibition incubated for 5 days by SRB assay; type: functional, cell-based; settings: HCT-116, 120 h
HepG2 [39] = experiment: Anticancer activity against human HepG2 cells assessed as cell growth inhibition incubated for 24 hrs by MTT assay; type: functional, cell-based; settings: HepG2, 24 h
MDA-MB-231 [40] = experiment: Anticancer activity against human MDA-MB-231 cells assessed as cell growth inhibition incubated for 24 hrs by MTT assay; type: functional, cell-based; settings: MDA-MB-231, 24 h
MDA-MB-231 [41] = experiment: Anticancer activity against human MDA-MB-231 cells assessed as cell growth inhibition by CyQuant assay; type: functional, cell-based
HeLa [42] = experiment: Anticancer activity against human HeLa cells assessed as cell growth inhibition measured after 72 hrs by MTT assay; type: functional, cell-based; settings: hela; read-out: IC50
[43] = Anticancer activity against human AZ-AHR cells assessed as cell growth inhibition incubate for 24 hrs by MTT assay; type: functional, cell-based

## CC(C)C[C@H](NC(=O)[C@H](CCCCN)NC(=O)[C@H](CO)NC(=O)[C@@H](N)CC(C)C)C(=O)Oc1ccc(/C=C/c2cc(O)cc(O)c2)cc1 (H-LSKL-X1)
MCF7 [1]
  IC50: 58 µM
NCI-H460
  IC50: 41 µM
HCT-116 [2]
  IC50: 78 µM

## COc1cc(/C=C/c2ccc(C)cc2)cc(OC)c1OC
A549 [3]
  IC50: 2.6 µM
[4]
  Ratio IC50: 2
[5]
  IC50: 1.4 µM
CCRF-CEM [6]
  IC50: 3.1 µM
CCRF-CEM [7]
  IC50: 2.6 µM
L1210
  IC50: 1.2 µM

## Oc1ccc(/C=C/c2cc(O)cc(O)c2)cc1 [RESVERATROL]
MCF7 [8]
  IC50: 127 µM
[9]
  IC50 at 24 h: > 100 µM
[10]
  IC50: > 20 µM
[11]
  IC50: 485 µM
HL-60
  IC50: 64.1 µM
MCF7 [12]
  IC50: 61.7 µM
A549 [13]
  IC50: 66.2 µM and 10.5 µM
HepG2 [14]
  IC50: 355 µM
MCF-12A
  IC50: 93.5 µM
SK-OV-3 [15]
  IC50: 48 µM
[16]
  IC50: 495 µM
HeLa [17]
  IC50: 137 µM
Capan-2
  IC50: 26.5 µM
HeLa [18]
  IC50: 152 µM
A-431
  IC50: 49.4 µM
[19]
  IC50: 421 µM
[20]
  GI50: 15.9 µM
[21]
  IC50 at 48 h: 188 µM
HT-29 [22]
  IC50: 70 µM
Ishikawa
  IC50: 3.4 µM
MCF7 [23]
  IC50: 40.5 µM
HT-29 [24]
  IC50: 1120 µM
HCT-116 [25]
  IC50: 19.4 µM
A2780 [26]
  IC50: 48 µM
HaCaT
  IC50: 85.2 µM
A2780 [27]
  IC50: 65 µM
U-251
  IC50: > 50 µM
HT-29 [28]
  IC50: 130 µM
OVCAR-3
  IC50: 480 µM
[29]
  IC50: 465 µM
MCF7 [30]
  IC50: 88.2 µM
SK-OV-3 [31]
  IC50: 380 µM
BXPC-3
  IC50: 28 µM
HepG2 [32]
  IC50: 111 µM
[33]
  IC50: 10.5 µM and 24.9 µM
ASPC1
  IC50: 25 µM
MDA-MB-231 [34]
  Activity: 58.45%
PANC-1
  IC50: 70 µM
[35]
  IC50 at 48 h: 83.1 µM
CYP1A
  IC50: 0.23 µM
MCF7 [36]
  IC50: 24.6 µM
Renal cancer cell line
  GI50: 15.9 µM
HEK293
  IC50: 12 µM
MCF7 [37]
  IC50: 68.3 µM
SK-BR-3
  IC50: 110 µM
Caco-2
  IC50: 190 µM
HCT-116 [38]
  IC50: 31 µM
HepG2 [39]
  IC50: 54.9 µM
MDA-MB-231 [40]
  IC50: 90.6 µM
MDA-MB-231 [41]
  IC50: 40 µM
HeLa [42]
  IC50: 98.2 µM and 10.5 µM
[43]
  IC50: 19.4 µM
